The nature of data set [1]: Solubility properties. The class given is physicochemical.
Data set [2] can be described thus: Acute toxicity in mice, oral LD50 (method of Miller & Tainter). Conditions: mouse, in vivo, mortality determined 48 hours after administration. The protocol: The chemical compounds previously described were submitted to toxicity tests. It was determined in mice by oral administration and was calculated in accordance with the method of MILLER & TAINTER. It is generally low and greater than 1000 mg/kg.

Data set [3] deals with carrageenin edema. In words: Carrageenin edema test in rats (antiinflammatory). The class given is in vivo. The conditions noted are these: for change in vivo at 300 mg/kg / change in vivo at 75 mg/kg / change in vivo at 200 mg/kg: Rattus norvegicus; for change in vivo at 300 mg/kg: 300 mg/kg oral; for % var. / action (variation of paw volume increase vs controls) / change in vivo at 75 mg/kg: 75 mg/kg oral; for change in vivo at 200 mg/kg: 200 mg/kg oral. The protocol: The antiinflammatory properties were shown by the carrageenin edema test in rats, the products having been administered orally 1 hour before the intrapodal injection of 0.05 ml of a 2% suspension of carrageenin; the volume of the rat's paw was measured by plethysmoscopy 3, 4 and 6 hours afterwards.
The experiment concerned for each lot […]; one lot of animals receiving only the vehicle (2 ml/100 g of Tween + water) which served for the administration of the products, constituted the control lot. The following table sets forth the results obtained: […]
(In general: In the carrageenan paw model, swelling and tenderness develop within hours.)

For data set [4], the system named is total blood cholesterol. Kind of data set: Total blood cholesterol in rats on a normal diet (hypocholesterolemizing). Conditions: 300 mg/kg oral, 4 consecutive days; 5th day, fasted 16 hours. It counts as in vivo. The protocol: One lot of rats served as control.
The sampling was effected on the 5th day after 16 hours fasting, by cardiac puncture and the total blood cholesterol determination was effected by the Liebermann-Burchardt colorimetric method.

In data set [5] the test system is writhings induced by phenylbenzoquinone. Kind of data set: Writhing test, phenylbenzoquinone (analgetic). Conditions: t + 35 to t + 40 min. The class given is in vivo, mice. As for the experimental part: The analgetic properties of certain compounds were shown in mice by the "writhing test" method, that is to say with reference to the writhings induced by phenylbenzoquinone. The administration of the product is effected orally at time t; it is followed by the intraperitoneal injection of 0.2% phenylbenzoquinone at t + 30 min. The determination of the writhings is effected from t + 35 min. to t + 40 min. One lot of animals receiving only the vehicle (5% Tween 80 in 0.9% NaCl) serves as control.
On the technique in general: An intraperitoneal irritant provokes the stretching counted in writhing tests.

Setting [6] is: + 3 hrs, read-out: % increase in volume of the paw, mean (m).
[7] abbreviates: + 3 hrs, read-out: Action (variation of paw volume increase vs controls).
[8] abbreviates: + 4 hrs, read-out: % increase in volume of the paw, mean (m).
The mark [9] stands for this setting: + 4 hrs, read-out: Action (variation of paw volume increase vs controls).
[10] abbreviates: + 6 hrs, read-out: % increase in volume of the paw, mean (m).
The mark [11] stands for this setting: + 6 hrs, read-out: Action (variation of paw volume increase vs controls).
[12] abbreviates: read-out: % mean variation of the volume of the paw at 3, 4 and 6 hrs.
The mark [13] stands for this setting: 3 hrs, read-out: % increase in volume of the paw, mean (m).
Setting [14] is: 4 hrs, read-out: % increase in volume of the paw, mean (m).
[15] abbreviates: 6 hrs, read-out: % increase in volume of the paw, mean (m).

Read-outs that look alike come from different tables or passages of the source.

Broadly, the LD50 is the dose at which mortality reaches 50%. For `C=C(CC(=O)c1ccc(F)cc1)C(=O)O` [F 1376, 2-methylene 4-oxo 4-fluorophenyl butyric acid], in data set [1] (ethyl alcohol / ethanol / alcohol), the “Solubility in ethyl alcohol” value came out at 20%. The “Solubility in propylene glycol” value in data set [1] (propylene glycol) is on record as 10%. In addition, in data set [1] (water, in words), the Solubility in water result was “insoluble”. The same compound gave an LD50 at 48 h in data set [2] of 1400 mg/kg. In addition, the change in vivo at 300 mg/kg was 50.8% in data set [3] (setting [6]); -17% in data set [3] (setting [7]); 51.5% in data set [3] (setting [8]); -15% in data set [3] (setting [9]); 54.8% in data set [3] (setting [10]); -4% in data set [3] (setting [11]). Also, the change in vivo at 300 mg/kg in data set [3] (setting [12]) is -12%. In addition, in data set [4], the “Total blood cholesterol, M” value is 0,66.

For `C=C(CC(=O)c1ccc(-c2ccccc2)cc1)C(=O)O` [F 1377, 2-methylene 4-oxo 4-(paraphenylphenyl) butyric acid], in data set [1], the “Solubility in N-methyl pyrrolidone” value came out at 15%. In addition, the “Solubility in dimethyl sulfoxide” value in data set [1] (dimethyl sulfoxide) is 10%. The Solubility in ether result in data set [1] (in words) was “insoluble”. Also, the “Solubility in propylene glycol (in words)” value in data set [1] (propylene glycol, in words) is “insoluble”. The “Solubility in water in the form of sodium salt (in words)” value in data set [1] (sodium salt, water, in words) is reported as “insoluble”. Further, the Solubility in water entry in data set [1] (water, in words) is on record as “insoluble”. The same compound came in with an LD50 at 48 h in data set [2] above 2000 mg/kg. In addition, the entries for the “% var. / action (variation of paw volume increase vs controls)” value in data set [3] (3 hrs), in data set [3] (4 hrs) and in data set [3] (6 hrs) were -37%, -37% and -18%, respectively. In addition, the change in vivo at 75 mg/kg in data set [3] (setting [13]) is 28.8%; in data set [3] (setting [14]) it was 30.5%; in data set [3] (setting [15]) it was 37.2%; in data set [3] (setting [12]), -30%. Moreover, the change in vivo at 200 mg/kg is 27.4% in data set [3] (setting [6]); -46% in data set [3] (setting [7]); 28% in data set [3] (setting [8]); -43% in data set [3] (setting [9]); 28.4% in data set [3] (setting [10]); -32% in data set [3] (setting [11]). For the same compound, the change in vivo at 200 mg/kg in data set [3] (setting [12]) was -40%. Further, the “% Decrease (of writhings)” value in data set [5] (300 mg/kg oral) is listed as 68,6%. Also, the “Mean No. of Writhings” value in data set [5] (300 mg/kg oral) was 8,00.

Take `CC(=CC(=O)c1ccc(-c2ccccc2Cl)cc1)C(=O)O` [F 1439, 2-methyl 4-oxo 4-(4'-O-chlorophenylphenyl) 2-butenoic acid]: the “Solubility in N-methyl pyrrolidone” value in data set [1] turned out to be 25%. Moreover, the “Solubility in chloroform (in words)” value in data set [1] (chloroform, in words) is listed as “Soluble”. Also, in data set [1], the “Solubility in NN-dimethyl acetamide” value is given as 20%. The Solubility in ether entry in data set [1] (in words) is listed as “Soluble”. For the same compound, in data set [1] (water, in words), the Solubility in water result is listed as “insoluble”. The same compound showed an LD50 at 48 h in data set [2] of 2370 mg/kg. Besides, the figures for the “% var. / action (variation of paw volume increase vs controls)” value in data set [3] (3 hrs), in data set [3] (4 hrs) and in data set [3] (6 hrs) were -36%, -33% and -28%, respectively. Also, the change in vivo at 75 mg/kg was 38% in data set [3] (setting [13]), 40% in data set [3] (setting [14]), 40% in data set [3] (setting [15]) and -32% in data set [3] (setting [12]). In addition, the “Total blood cholesterol, M” value in data set [4] is reported as 0,67.

In the case of `CC(=CC(=O)c1ccccc1)C(=O)Nc1cccc(C(F)(F)F)c1` [F 1442, 2-methyl 4-oxo 4-phenyl N(m-trifluoromethylphenyl) 2-butenamide], in data set [1], the “Solubility in N-methyl pyrrolidone” value came out at 40%. In data set [1] (alcohol / ethanol of 95° GL), the “Solubility in alcohol of 95° GL” value is on record as 30%. For the same compound, in data set [1], the “Solubility in NN-dimethyl acetamide” value is reported as 40%. In addition, the Solubility in water result in data set [1] (water, in words) is “insoluble”. The compound further returned an LD50 at 48 h in data set [2] above 1000 mg/kg. In addition, the figures for the “% var. / action (variation of paw volume increase vs controls)” value in data set [3] (3 hrs), in data set [3] (4 hrs) and in data set [3] (6 hrs) were -16%, -14% and -11%, respectively. Further, the change in vivo at 75 mg/kg in data set [3] (setting [13]) is 50%; in data set [3] (setting [14]), 51%; in data set [3] (setting [15]), 49%; in data set [3] (setting [12]), -13%.

`C=C(CC(=O)c1ccc(-c2ccc(Cl)cc2)cc1)C(=O)O` [F 1449, 2-methylene 4-oxo 4-(4' p-chlorophenylphenyl) butyric acid]: in data set [1], the “Solubility in N-methyl pyrrolidone” value was 30%. In addition, in data set [1] (absolute alcohol), the “Solubility in absolute alcohol” value is 1%. Besides, the “Solubility in NN-dimethyl acetamide” value in data set [1] was 30%. Also, in data set [1] (water, in words), the Solubility in water result is “insoluble”. Further, the figures for the “% var. / action (variation of paw volume increase vs controls)” value in data set [3] (3 hrs), in data set [3] (4 hrs) and in data set [3] (6 hrs) were -29%, -24% and -20%, respectively. In addition, the change in vivo at 75 mg/kg was 42% in data set [3] (setting [13]), 45% in data set [3] (setting [14]), 44.5% in data set [3] (setting [15]) and -24% in data set [3] (setting [12]). In addition, the “% Decrease (of writhings)” value in data set [5] (200 mg/kg oral) came out at 17%. Besides, in data set [5] (200 mg/kg oral), the “Mean No. of Writhings” value is on record as 27,4.

The record behind these values is patent US4008323A, “Method of reducing cholesterol using certain aromatic keto acids” (Pierre Fabre S.A., priority 1974, dated 1977).
